# Conditions: human gut metagenome, 24 h, 2 µM
# Also: call rule not given here.
row,SMILES,Bacterial Biotransformation
1,CC[C@@H](CO)NC(=O)[C@@H]1C=C2c3cccc4c3c(cn4C)C[C@H]2N(C)C1.O=C(O)/C=C\C(=O)O [METHYSERGIDE MALEATE],Compound NOT metabolized
2,CCOC(=O)[C@H](CCc1ccccc1)N[C@@H](C)C(=O)N1[C@H](C(=O)O)C[C@H]2CCCC[C@@H]21 [TRANDOLAPRIL],Compound metabolized

# Experiment: (§1) The drug is tested on Z-001 corresponding to mouse gut metagenome with ENA study accession number: PRJEB37062 and ENA sample accession number: ERS12561801 for biotransformation under anaerobic condition. The drug concentrations were measured over 9 timepoints collected between 0 and 24 hours of incubation by liquid-chromatography-coupled mass spectrometry (LC–MS)
# Conditions: 2 µM
row,SMILES,Bacterial Biotransformation
1,CC[C@@H](CO)NC(=O)[C@@H]1C=C2c3cccc4c3c(cn4C)C[C@H]2N(C)C1.O=C(O)/C=C\C(=O)O [METHYSERGIDE MALEATE],Compound NOT metabolized
2,CCOC(=O)[C@H](CCc1ccccc1)N[C@@H](C)C(=O)N1[C@H](C(=O)O)C[C@H]2CCCC[C@@H]21 [TRANDOLAPRIL],Compound NOT metabolized

# Experiment: as §1, with “Z-030” for “Z-001”, “ERS12561829” for “ERS12561801”
# Conditions: 2 µM
row,SMILES,Bacterial Biotransformation
1,CC[C@@H](CO)NC(=O)[C@@H]1C=C2c3cccc4c3c(cn4C)C[C@H]2N(C)C1.O=C(O)/C=C\C(=O)O [METHYSERGIDE MALEATE],Compound NOT metabolized
2,CCOC(=O)[C@H](CCc1ccccc1)N[C@@H](C)C(=O)N1[C@H](C(=O)O)C[C@H]2CCCC[C@@H]21 [TRANDOLAPRIL],Compound NOT metabolized

# Experiment: as §1, with “Z-004” for “Z-001”, “to” for “to mouse gut”, “ERS12561804” for “ERS12561801”
# Conditions: 2 µM
row,SMILES,Bacterial Biotransformation
1,CC[C@@H](CO)NC(=O)[C@@H]1C=C2c3cccc4c3c(cn4C)C[C@H]2N(C)C1.O=C(O)/C=C\C(=O)O [METHYSERGIDE MALEATE],Compound NOT metabolized
2,CCOC(=O)[C@H](CCc1ccccc1)N[C@@H](C)C(=O)N1[C@H](C(=O)O)C[C@H]2CCCC[C@@H]21 [TRANDOLAPRIL],Compound metabolized

# Experiment: as §1, with “Z-024” for “Z-001”, “pig” for “mouse”, “ERS12561823” for “ERS12561801”
# Conditions: 2 µM
row,SMILES,Bacterial Biotransformation
1,CC[C@@H](CO)NC(=O)[C@@H]1C=C2c3cccc4c3c(cn4C)C[C@H]2N(C)C1.O=C(O)/C=C\C(=O)O [METHYSERGIDE MALEATE],Compound NOT metabolized
2,CCOC(=O)[C@H](CCc1ccccc1)N[C@@H](C)C(=O)N1[C@H](C(=O)O)C[C@H]2CCCC[C@@H]21 [TRANDOLAPRIL],Compound metabolized

# Experiment: as §1, with “Z-028” for “Z-001”, “ERS12561827” for “ERS12561801”
# Conditions: 2 µM
row,SMILES,Bacterial Biotransformation
1,CC[C@@H](CO)NC(=O)[C@@H]1C=C2c3cccc4c3c(cn4C)C[C@H]2N(C)C1.O=C(O)/C=C\C(=O)O [METHYSERGIDE MALEATE],Compound NOT metabolized
2,CCOC(=O)[C@H](CCc1ccccc1)N[C@@H](C)C(=O)N1[C@H](C(=O)O)C[C@H]2CCCC[C@@H]21 [TRANDOLAPRIL],Compound NOT metabolized

# Experiment: as §1, with “Z-010” for “Z-001”, “to” for “to mouse gut”, “ERS12561810” for “ERS12561801”
# Conditions: 2 µM
row,SMILES,Bacterial Biotransformation
1,CC[C@@H](CO)NC(=O)[C@@H]1C=C2c3cccc4c3c(cn4C)C[C@H]2N(C)C1.O=C(O)/C=C\C(=O)O [METHYSERGIDE MALEATE],Compound NOT metabolized
2,CCOC(=O)[C@H](CCc1ccccc1)N[C@@H](C)C(=O)N1[C@H](C(=O)O)C[C@H]2CCCC[C@@H]21 [TRANDOLAPRIL],Compound metabolized

# Experiment: as §1, with “Z-026” for “Z-001”, “to” for “to mouse gut”, “ERS12561825” for “ERS12561801”
# Conditions: 2 µM
row,SMILES,Bacterial Biotransformation
1,CC[C@@H](CO)NC(=O)[C@@H]1C=C2c3cccc4c3c(cn4C)C[C@H]2N(C)C1.O=C(O)/C=C\C(=O)O [METHYSERGIDE MALEATE],Compound NOT metabolized
2,CCOC(=O)[C@H](CCc1ccccc1)N[C@@H](C)C(=O)N1[C@H](C(=O)O)C[C@H]2CCCC[C@@H]21 [TRANDOLAPRIL],Compound NOT metabolized

# Experiment: as §1, with “WLS-370” for “Z-001”, “human” for “mouse”, “ERS12561793” for “ERS12561801”
# Conditions: 2 µM
row,SMILES,Bacterial Biotransformation
1,CC[C@@H](CO)NC(=O)[C@@H]1C=C2c3cccc4c3c(cn4C)C[C@H]2N(C)C1.O=C(O)/C=C\C(=O)O [METHYSERGIDE MALEATE],Compound NOT metabolized
2,CCOC(=O)[C@H](CCc1ccccc1)N[C@@H](C)C(=O)N1[C@H](C(=O)O)C[C@H]2CCCC[C@@H]21 [TRANDOLAPRIL],Compound NOT metabolized

# Conditions: human gut metagenome, 24 h, 2 µM
# Remark: another data set of the same source
row,SMILES,Bacterial Biotransformation
1,CC[C@@H](CO)NC(=O)[C@@H]1C=C2c3cccc4c3c(cn4C)C[C@H]2N(C)C1.O=C(O)/C=C\C(=O)O [METHYSERGIDE MALEATE],Compound metabolized
2,CCOC(=O)[C@H](CCc1ccccc1)N[C@@H](C)C(=O)N1[C@H](C(=O)O)C[C@H]2CCCC[C@@H]21 [TRANDOLAPRIL],Compound metabolized

# Experiment: as §1, with “Z-020” for “Z-001”, “rabbit” for “mouse”, “ERS12561819” for “ERS12561801”
# Conditions: 2 µM
row,SMILES,Bacterial Biotransformation
1,CC[C@@H](CO)NC(=O)[C@@H]1C=C2c3cccc4c3c(cn4C)C[C@H]2N(C)C1.O=C(O)/C=C\C(=O)O [METHYSERGIDE MALEATE],Compound NOT metabolized
2,CCOC(=O)[C@H](CCc1ccccc1)N[C@@H](C)C(=O)N1[C@H](C(=O)O)C[C@H]2CCCC[C@@H]21 [TRANDOLAPRIL],Compound metabolized

# Conditions: human gut metagenome, 24 h, 2 µM
# Remark: another data set of the same source
row,SMILES,Bacterial Biotransformation
1,CC[C@@H](CO)NC(=O)[C@@H]1C=C2c3cccc4c3c(cn4C)C[C@H]2N(C)C1.O=C(O)/C=C\C(=O)O [METHYSERGIDE MALEATE],Compound NOT metabolized
2,CCOC(=O)[C@H](CCc1ccccc1)N[C@@H](C)C(=O)N1[C@H](C(=O)O)C[C@H]2CCCC[C@@H]21 [TRANDOLAPRIL],Compound metabolized

# Experiment: as §1, with “WLS-090” for “Z-001”, “human” for “mouse”, “ERS12561753” for “ERS12561801”
# Conditions: 2 µM
row,SMILES,Bacterial Biotransformation
1,CC[C@@H](CO)NC(=O)[C@@H]1C=C2c3cccc4c3c(cn4C)C[C@H]2N(C)C1.O=C(O)/C=C\C(=O)O [METHYSERGIDE MALEATE],Compound NOT metabolized
2,CCOC(=O)[C@H](CCc1ccccc1)N[C@@H](C)C(=O)N1[C@H](C(=O)O)C[C@H]2CCCC[C@@H]21 [TRANDOLAPRIL],Compound metabolized

# Conditions: human gut metagenome, 24 h, 2 µM
# Remark: another data set of the same source
row,SMILES,Bacterial Biotransformation
1,CC[C@@H](CO)NC(=O)[C@@H]1C=C2c3cccc4c3c(cn4C)C[C@H]2N(C)C1.O=C(O)/C=C\C(=O)O [METHYSERGIDE MALEATE],Compound NOT metabolized
2,CCOC(=O)[C@H](CCc1ccccc1)N[C@@H](C)C(=O)N1[C@H](C(=O)O)C[C@H]2CCCC[C@@H]21 [TRANDOLAPRIL],Compound metabolized

# Conditions: human gut metagenome, 24 h, 2 µM
# Remark: another data set of the same source
row,SMILES,Bacterial Biotransformation
1,CC[C@@H](CO)NC(=O)[C@@H]1C=C2c3cccc4c3c(cn4C)C[C@H]2N(C)C1.O=C(O)/C=C\C(=O)O [METHYSERGIDE MALEATE],Compound NOT metabolized
2,CCOC(=O)[C@H](CCc1ccccc1)N[C@@H](C)C(=O)N1[C@H](C(=O)O)C[C@H]2CCCC[C@@H]21 [TRANDOLAPRIL],Compound NOT metabolized

# Experiment: as §1, with “Z-002” for “Z-001”, “rabbit” for “mouse”, “ERS12561802” for “ERS12561801”
# Conditions: 2 µM
row,SMILES,Bacterial Biotransformation
1,CC[C@@H](CO)NC(=O)[C@@H]1C=C2c3cccc4c3c(cn4C)C[C@H]2N(C)C1.O=C(O)/C=C\C(=O)O [METHYSERGIDE MALEATE],Compound NOT metabolized
2,CCOC(=O)[C@H](CCc1ccccc1)N[C@@H](C)C(=O)N1[C@H](C(=O)O)C[C@H]2CCCC[C@@H]21 [TRANDOLAPRIL],Compound metabolized

# Experiment: as §1, with “Z-027” for “Z-001”, “to” for “to mouse gut”, “ERS12561826” for “ERS12561801”
# Conditions: 2 µM
row,SMILES,Bacterial Biotransformation
1,CC[C@@H](CO)NC(=O)[C@@H]1C=C2c3cccc4c3c(cn4C)C[C@H]2N(C)C1.O=C(O)/C=C\C(=O)O [METHYSERGIDE MALEATE],Compound NOT metabolized
2,CCOC(=O)[C@H](CCc1ccccc1)N[C@@H](C)C(=O)N1[C@H](C(=O)O)C[C@H]2CCCC[C@@H]21 [TRANDOLAPRIL],Compound NOT metabolized

# Conditions: human gut metagenome, 24 h, 2 µM
# Remark: another data set of the same source
row,SMILES,Bacterial Biotransformation
1,CC[C@@H](CO)NC(=O)[C@@H]1C=C2c3cccc4c3c(cn4C)C[C@H]2N(C)C1.O=C(O)/C=C\C(=O)O [METHYSERGIDE MALEATE],Compound NOT metabolized
2,CCOC(=O)[C@H](CCc1ccccc1)N[C@@H](C)C(=O)N1[C@H](C(=O)O)C[C@H]2CCCC[C@@H]21 [TRANDOLAPRIL],Compound NOT metabolized

# Conditions: human gut metagenome, 24 h, 2 µM
# Remark: another data set of the same source
row,SMILES,Bacterial Biotransformation
1,CC[C@@H](CO)NC(=O)[C@@H]1C=C2c3cccc4c3c(cn4C)C[C@H]2N(C)C1.O=C(O)/C=C\C(=O)O [METHYSERGIDE MALEATE],Compound metabolized
2,CCOC(=O)[C@H](CCc1ccccc1)N[C@@H](C)C(=O)N1[C@H](C(=O)O)C[C@H]2CCCC[C@@H]21 [TRANDOLAPRIL],Compound metabolized

# Experiment: as §1, with “WLS-170” for “Z-001”, “human” for “mouse”, “ERS12561762” for “ERS12561801”
# Conditions: 2 µM
row,SMILES,Bacterial Biotransformation
1,CC[C@@H](CO)NC(=O)[C@@H]1C=C2c3cccc4c3c(cn4C)C[C@H]2N(C)C1.O=C(O)/C=C\C(=O)O [METHYSERGIDE MALEATE],Compound metabolized
2,CCOC(=O)[C@H](CCc1ccccc1)N[C@@H](C)C(=O)N1[C@H](C(=O)O)C[C@H]2CCCC[C@@H]21 [TRANDOLAPRIL],Compound metabolized

# From ChEMBL document CHEMBL5724914, “Linking interpersonal differences in gut microbiota composition and drug biotransformation activity” (2024)
